Experimental data: PubChem BioAssay (NCI)
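The compound was tested at five concentrations on cells cultured in 96-well plates, with a 48-hour exposure period. TGI is the concentration that stops growth completely.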

Tests used:
Assay in all cases: NCI-60 cell line screen, 48 h
EKVX NSCLC = system: EKVX NSCLC
CCRF-CEM leukemia = system: CCRF-CEM leukemia
SK-MEL-2 melanoma = system: SK-MEL-2 melanoma
SF-295 CNS = system: SF-295 CNS
OVCAR-4 ovarian = system: OVCAR-4 ovarian
COLO 205 colon = system: COLO 205 colon
RXF 393 renal = system: RXF 393 renal
HOP-92 NSCLC = system: HOP-92 NSCLC
786-0 renal = system: 786-0 renal
SK-MEL-5 melanoma = system: SK-MEL-5 melanoma

For OC1c2ccccc2[C@@H]2[C@H]1[C@@H](c1ccccc1)C1(Cc3ccccc3C1O)[C@H]2c1ccccc1 (stereo not given in full), the TGI (EKVX NSCLC) was 19.2 µM, the TGI (CCRF-CEM leukemia) was 12.7 µM and the TGI (SK-MEL-2 melanoma) was 20 µM. For the same compound, the TGI (SF-295 CNS) was 18.9 µM, the TGI (OVCAR-4 ovarian) was 17.4 µM and the TGI (COLO 205 colon) was 3.62 µM. The TGI (RXF 393 renal) was 4.83 µM, the TGI (HOP-92 NSCLC) was 12.6 µM and the TGI (786-0 renal) was 8.28 µM. The TGI (SK-MEL-5 melanoma) was 18.2 µM.
CN1CCN(c2nc3ccccc3nc2C(=O)c2ccc(Cl)cc2)CC1 was tested, and the TGI (EKVX NSCLC) was greater than 100 µM, the TGI (CCRF-CEM leukemia) was greater than 100 µM and the TGI (SK-MEL-2 melanoma) was greater than 100 µM. For the same compound, the TGI (SF-295 CNS) was greater than 100 µM, the TGI (OVCAR-4 ovarian) was greater than 100 µM and the TGI (COLO 205 colon) was greater than 100 µM. It also gave a TGI (RXF 393 renal) of 77.3 µM, a TGI (HOP-92 NSCLC) greater than 100 µM and a TGI (786-0 renal) greater than 100 µM. For the same compound, the TGI (SK-MEL-5 melanoma) was 52.7 µM.
CSC(SC)=C1C(=O)NN=C1C was tested, and the TGI (EKVX NSCLC) was greater than 100 µM, the TGI (CCRF-CEM leukemia) was greater than 100 µM and the TGI (SK-MEL-2 melanoma) was greater than 100 µM. For the same compound, the TGI (SF-295 CNS) was greater than 100 µM, the TGI (OVCAR-4 ovarian) was greater than 100 µM and the TGI (COLO 205 colon) was greater than 100 µM. The TGI (RXF 393 renal) was greater than 100 µM, the TGI (HOP-92 NSCLC) was greater than 100 µM and the TGI (786-0 renal) was greater than 100 µM. The TGI (SK-MEL-5 melanoma) was greater than 100 µM.
Work on CCCCCCCCCCCCCCCC(=O)ON1C(=S)NC(C)(c2ccccc2)C1=S (stereo not given) yielded a TGI (EKVX NSCLC) greater than 100 µM, a TGI (CCRF-CEM leukemia) greater than 100 µM and a TGI (SK-MEL-2 melanoma) greater than 100 µM. The TGI (SF-295 CNS) was greater than 100 µM, the TGI (OVCAR-4 ovarian) was greater than 100 µM and the TGI (COLO 205 colon) was greater than 100 µM. The TGI (RXF 393 renal) was greater than 100 µM, the TGI (HOP-92 NSCLC) was greater than 100 µM and the TGI (786-0 renal) was greater than 100 µM. It also gave a TGI (SK-MEL-5 melanoma) greater than 100 µM.
For O=C(CCCN1CCC2(CC1)C(=O)NC(=O)N2c1ccccc1)c1ccc(F)cc1, the TGI (EKVX NSCLC) was greater than 100 µM, the TGI (CCRF-CEM leukemia) was greater than 100 µM and the TGI (SK-MEL-2 melanoma) was greater than 100 µM. It also gave a TGI (SF-295 CNS) greater than 100 µM, a TGI (OVCAR-4 ovarian) greater than 100 µM and a TGI (COLO 205 colon) greater than 100 µM. The TGI (RXF 393 renal) was greater than 100 µM, the TGI (HOP-92 NSCLC) was greater than 100 µM and the TGI (786-0 renal) was greater than 100 µM. For the same compound, the TGI (SK-MEL-5 melanoma) was greater than 100 µM.
Work on CC(NC1=CC(=O)c2ncccc2C1=O)C(O)c1ccccc1 (stereo not given) yielded a TGI (EKVX NSCLC) of 29.5 µM, a TGI (CCRF-CEM leukemia) greater than 100 µM and a TGI (SK-MEL-2 melanoma) of 17.9 µM. The TGI (SF-295 CNS) was 14.9 µM, the TGI (OVCAR-4 ovarian) was 22.3 µM and the TGI (COLO 205 colon) was 29.7 µM. The TGI (RXF 393 renal) was 22.2 µM, the TGI (HOP-92 NSCLC) was 27.9 µM and the TGI (786-0 renal) was 26.2 µM. For the same compound, the TGI (SK-MEL-5 melanoma) was 2.6 µM.
Cc1c2c(c(C)n1-c1ccccc1)C(=O)N(CCSC(=N)N)C2=O gave a TGI (EKVX NSCLC) greater than 100 µM, a TGI (CCRF-CEM leukemia) greater than 100 µM and a TGI (SK-MEL-2 melanoma) greater than 100 µM. The TGI (SF-295 CNS) was greater than 100 µM, the TGI (OVCAR-4 ovarian) was greater than 100 µM and the TGI (COLO 205 colon) was greater than 100 µM. For the same compound, the TGI (RXF 393 renal) was greater than 100 µM, the TGI (HOP-92 NSCLC) was greater than 100 µM and the TGI (786-0 renal) was greater than 100 µM. It also gave a TGI (SK-MEL-5 melanoma) greater than 100 µM.
Work on N#Cc1cccc(C2ON=C(c3ccc([N+](=O)[O-])cc3)N2C23CC4CC(CC(C4)C2)C3)c1 (stereo not given) yielded a TGI (EKVX NSCLC) greater than 100 µM, a TGI (CCRF-CEM leukemia) greater than 100 µM and a TGI (SK-MEL-2 melanoma) greater than 100 µM. The TGI (SF-295 CNS) was greater than 100 µM, the TGI (OVCAR-4 ovarian) was 76.8 µM and the TGI (COLO 205 colon) was greater than 100 µM. The TGI (RXF 393 renal) was greater than 100 µM, the TGI (HOP-92 NSCLC) was greater than 100 µM and the TGI (786-0 renal) was greater than 100 µM. The TGI (SK-MEL-5 melanoma) was greater than 100 µM.
Cc1cc2nc(N3C(=O)/C(=C/c4cccc([N+](=O)[O-])c4)N=C3c3ccccc3)sc2cc1C gave a TGI (EKVX NSCLC) of 94.3 µM, a TGI (CCRF-CEM leukemia) of 23.4 µM and a TGI (SK-MEL-2 melanoma) of 60 µM. The TGI (SF-295 CNS) was greater than 100 µM, the TGI (OVCAR-4 ovarian) was 96.2 µM and the TGI (COLO 205 colon) was greater than 100 µM. For the same compound, the TGI (RXF 393 renal) was 58 µM, the TGI (HOP-92 NSCLC) was 58.2 µM and the TGI (786-0 renal) was greater than 100 µM. It also gave a TGI (SK-MEL-5 melanoma) greater than 100 µM.
O=C(NCCN1C(=O)CN=C(c2ccc(Cl)cc2)c2cc(Cl)ccc21)OCc1ccccc1 showed a TGI (EKVX NSCLC) of 66.6 µM, a TGI (CCRF-CEM leukemia) of 63.1 µM and a TGI (SK-MEL-2 melanoma) of 36 µM. For the same compound, the TGI (SF-295 CNS) was 29.4 µM, the TGI (OVCAR-4 ovarian) was 22.6 µM and the TGI (COLO 205 colon) was 50.4 µM. It also gave a TGI (RXF 393 renal) of 23.8 µM, a TGI (HOP-92 NSCLC) of 31.2 µM and a TGI (786-0 renal) of 28.9 µM. The TGI (SK-MEL-5 melanoma) was 30.2 µM.
CC12CC3CC/C(=N\O)C(C1)C3(N1CCOCC1)C/C2=N/O (stereo not given) was tested, and the TGI (EKVX NSCLC) was greater than 100 µM, the TGI (CCRF-CEM leukemia) was greater than 100 µM and the TGI (SK-MEL-2 melanoma) was greater than 100 µM. For the same compound, the TGI (SF-295 CNS) was greater than 100 µM, the TGI (OVCAR-4 ovarian) was greater than 100 µM and the TGI (COLO 205 colon) was greater than 100 µM. The TGI (RXF 393 renal) was greater than 100 µM, the TGI (HOP-92 NSCLC) was greater than 100 µM and the TGI (786-0 renal) was greater than 100 µM. For the same compound, the TGI (SK-MEL-5 melanoma) was greater than 100 µM.
CSCCC(NCc1c(O)ccc2ccc(=O)oc12)C(=O)O (stereo not given) gave a TGI (EKVX NSCLC) greater than 100 µM, a TGI (CCRF-CEM leukemia) greater than 100 µM and a TGI (SK-MEL-2 melanoma) greater than 100 µM. It also gave a TGI (SF-295 CNS) greater than 100 µM, a TGI (OVCAR-4 ovarian) greater than 100 µM and a TGI (COLO 205 colon) greater than 100 µM. The TGI (RXF 393 renal) was greater than 100 µM, the TGI (HOP-92 NSCLC) was greater than 100 µM and the TGI (786-0 renal) was greater than 100 µM. It also gave a TGI (SK-MEL-5 melanoma) greater than 100 µM.
In the case of CCC1(OC(=O)CN2CCN(CCO)CC2)C(=O)OCc2c1cc1n(c2=O)Cc2cc3ccccc3nc2-1 (stereo not given), the TGI (EKVX NSCLC) is reported as 55.9 µM, the TGI (CCRF-CEM leukemia) is reported as 0.451 µM and the TGI (SK-MEL-2 melanoma) is reported as 9.52 µM. It also gave a TGI (SF-295 CNS) of 15.6 µM, a TGI (OVCAR-4 ovarian) of 17 µM and a TGI (COLO 205 colon) of 15.5 µM. For the same compound, the TGI (RXF 393 renal) was 3.27 µM, the TGI (HOP-92 NSCLC) was 6.96 µM and the TGI (786-0 renal) was 2.53 µM. The TGI (SK-MEL-5 melanoma) was 1.15 µM.
O/N=c1/ccn(O)c2ccccc12 gave a TGI (EKVX NSCLC) of 11.2 µM, a TGI (CCRF-CEM leukemia) of 3.34 µM and a TGI (SK-MEL-2 melanoma) of 3.64 µM. The TGI (SF-295 CNS) was 2.9 µM, the TGI (OVCAR-4 ovarian) was 4.43 µM and the TGI (COLO 205 colon) was 4.74 µM. For the same compound, the TGI (RXF 393 renal) was 1.64 µM, the TGI (HOP-92 NSCLC) was 8.65 µM and the TGI (786-0 renal) was 10.3 µM. The TGI (SK-MEL-5 melanoma) was 2.77 µM.
In the case of CC(O)c1c2c(cc3c1CC1(C3)Cc3cc4c(c(C(C)O)c3C1)CCC4)CCC2 (stereo not given), the TGI (EKVX NSCLC) is reported as 96.2 µM, the TGI (CCRF-CEM leukemia) is reported as 22.1 µM and the TGI (SK-MEL-2 melanoma) is reported as 43.3 µM. It also gave a TGI (SF-295 CNS) of 45.2 µM, a TGI (OVCAR-4 ovarian) of 17.5 µM and a TGI (COLO 205 colon) of 28.6 µM. For the same compound, the TGI (RXF 393 renal) was 30 µM, the TGI (HOP-92 NSCLC) was 31.6 µM and the TGI (786-0 renal) was 28.9 µM. The TGI (SK-MEL-5 melanoma) was 25.6 µM.
Work on COc1cc(N(CCC#N)CCC#N)ccc1/C(N=Nc1ccc(C)cc1)=N/NC(=O)c1cc(Br)ccc1O yielded a TGI (EKVX NSCLC) of 66.7 µM, a TGI (CCRF-CEM leukemia) of 25.2 µM and a TGI (SK-MEL-2 melanoma) of 96.5 µM. For the same compound, the TGI (SF-295 CNS) was greater than 100 µM, the TGI (OVCAR-4 ovarian) was 63.1 µM and the TGI (COLO 205 colon) was 29.1 µM. It also gave a TGI (RXF 393 renal) of 65.6 µM, a TGI (HOP-92 NSCLC) of 65.6 µM and a TGI (786-0 renal) greater than 100 µM. The TGI (SK-MEL-5 melanoma) was 37 µM.
In the case of Cc1cn(CC2=NCCN2)c(=O)[nH]c1=O, the TGI (EKVX NSCLC) is reported as greater than 100 µM, the TGI (CCRF-CEM leukemia) is reported as greater than 100 µM and the TGI (SK-MEL-2 melanoma) is reported as greater than 100 µM. It also gave a TGI (SF-295 CNS) greater than 100 µM, a TGI (OVCAR-4 ovarian) greater than 100 µM and a TGI (COLO 205 colon) greater than 100 µM. It also gave a TGI (RXF 393 renal) greater than 100 µM, a TGI (HOP-92 NSCLC) greater than 100 µM and a TGI (786-0 renal) greater than 100 µM. For the same compound, the TGI (SK-MEL-5 melanoma) was greater than 100 µM.
